Reference: patent US20250304537A1 (Repare Therapeutics Inc., priority 2022, published 2025)
Read-outs that look alike come from different tables or passages of the source.

System: PKMYT1 (CDK1 pThr14) in FUOV1 cells
Test: PKMYT1 cell-based activity assay, CDK1 pThr14 AlphaLISA in FUOV1 cells
Settings: read-out: FUOV-1 CDK1 pThr14 IC50
In short: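 IC50 was derived from AlphaLISA signal (excitation 680 nm, emission 615 nm) for phospho-Thr14 CDK1 in lysates. The detection antibodies were rabbit anti-pThr14 and mouse anti-total CDK1, each at 5 nM. FUOV1 ovarian cells were exposed to compound for 2 hours before lysis.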

SMILES	IC50 (2 h, 2 h compound incubation)	IC50 (2 h, 2 hours with compound)	further results
Cc1ccc2[nH]ncc2c1-c1nc(-c2cc(F)c(F)cc2NC2CCS(=O)(=O)CC2)nc(C(N)=O)c1N [Compound 529]	251 nM	–	–
Cc1cc(F)c2[nH]ncc2c1-c1nc(-c2cccnc2NC2CC2)nc(C(N)=O)c1N [Compound 871]	–	39 nM	–
Cc1ccc2[nH]ncc2c1-c1cc2c(oc3ccc(OCc4cccnc4)nc32)c(C(N)=O)c1N [Compound 569, 7-amino-8-(5-methyl-1H-indazol-4-yl)-2-(pyridin-3-ylmethoxy)benzofuro[3,2-b]pyridine-6-carboxamide]	712 nM	–	–
Cn1cc(-c2nc(C(N)=O)c(N)c(-c3c(Cl)ccc4[nH]ncc34)n2)c(NC2CCCC2)n1 [Compound 920]	–	118 nM	–
Cc1cc(F)c2[nH]ncc2c1-c1nc(-c2ccc(F)nc2Nc2ncccc2C(F)F)nc(C(N)=O)c1N [Compound 878]	–	36 nM	–
Cc1ccc2[nH]ncc2c1-c1nc(-c2cc(F)ccc2NC(=O)C2(C)CCOCC2)nc(C(N)=O)c1N [Compound 505]	36 nM	–	–
Cc1ccc2[nH]ncc2c1-c1nc(-c2cc(F)ncc2NC2CC(F)(F)C2)nc(C(N)=O)c1N [Compound 844]	–	38 nM	–
Cc1ccc2[nH]ncc2c1-c1nc(-c2ccc(C#N)cc2N[C@H]2C[C@@](C)(O)C2)nc(C(N)=O)c1N [Compound 822]	–	172 nM	–
COc1nccnc1Nc1nc(Cl)ccc1-c1nc(C(N)=O)c(N)c(-c2c(C)ccc3[nH]ncc23)n1 [Compound 826]	–	12 nM	–
Cc1ccc2[nH]ncc2c1-c1nc(-c2cccnc2N[C@H]2CCOC[C@H]2F)nc(C(N)=O)c1N [Compound 644]	10 nM	–	–
NC(=O)c1nc(-c2cccnc2NCC(F)(F)F)nc(-c2c(Cl)ccc3[nH]ncc23)c1N [Compound 912]	–	178 nM	–
Cc1cc(F)c2[nH]ncc2c1-c1nc(-c2cccnc2NCC(F)(F)F)nc(C(N)=O)c1N [Compound 872]	–	147 nM	–
Cc1ccc2[nH]ncc2c1-c1nc(-c2cccnc2NC2CCCOC2)nc(C(N)=O)c1N (stereo not shown) [Compound 582]	15 nM	–	–
Cc1cc(F)c2[nH]ncc2c1-c1nc(-c2ccc(C(F)F)nc2Nc2nccnc2Cl)nc(C(N)=O)c1N [Compound 909]	–	107 nM	–
[2H]C([2H])([2H])c1ccc2[nH]ncc2c1-c1nc(-c2ccc(Cl)nc2Nc2nccnc2F)nc(C(N)=O)c1N [Compound 966]	–	11 nM	–
Cc1ccc2[nH]ncc2c1-c1nc(-c2ccc(C#N)nc2NC2CC(F)(F)C2)nc(C(N)=O)c1N [Compound 809]	–	272 nM	–
Cc1ccc(-c2nc(C(N)=O)c(N)c(-c3c(C)ccc4[nH]ncc34)n2)c(N[C@H]2C[C@@](C)(O)C2)n1 [Compound 956]	–	92 nM	–
Cc1ccc2[nH]ncc2c1-c1nc(-c2cc(F)c(F)cc2NCC2(C#N)CC2)nc(C(N)=O)c1N [Compound 517]	139 nM	–	–
[2H]C([2H])([2H])c1ccc(-c2nc(C(N)=O)c(N)c(-c3c(C([2H])([2H])[2H])ccc4[nH]ncc34)n2)c(Nc2ncccn2)n1 [Compound 960]	–	40 nM	–
Cc1ccc2[nH]ncc2c1-c1nc(-c2cn(C)nc2Nc2ccccn2)nc(C(N)=O)c1N [Compound 916, 5-amino-6-(5-methyl-1H-indazol-4-yl)-2-(1-methyl-3-(pyridin-2-ylamino)-1H-pyrazol-4-yl)pyrimidine-4-carboxamide]	–	926 nM	–
Cc1ccc2[nH]ncc2c1-c1nc(-c2cc(F)cnc2N[C@@H]2C[C@H]3CC[C@@H]2O3)nc(C(N)=O)c1N [Compound 898]	–	–	IC50 (2 hours with compound): 76 nM

Further lines, with some results ahead:

IC50 (2 h, 2 h compound incubation)	IC50 (2 h, 2 hours with compound)	SMILES	further results
56 nM	–	Cc1ccc2[nH]ncc2c1-c1nc(-c2ccc(F)cc2Nc2cncc(C#N)n2)nc(C(N)=O)c1N [Compound 706]	–
14 nM	–	Cc1ccc2[nH]ncc2c1-c1nc(-c2cc(F)cnc2NC2CC2)nc(C(N)=O)c1N [Compound 680]	–
76 nM	–	COc1cnnc(Nc2cc(F)ccc2-c2nc(C(N)=O)c(N)c(-c3c(C)ccc4[nH]ncc34)n2)c1 [Compound 566]	–
77 nM	–	Cc1ccc2[nH]ncc2c1-c1nc(-c2ccc(Cl)cc2Nc2ncccn2)nc(C(N)=O)c1N [Compound 654]	–
–	23 nM	Cc1ccc2[nH]ncc2c1-c1nc(-c2ccc(F)nc2Nc2ncccc2C(F)F)nc(C(N)=O)c1N [Compound 945]	–
59 nM	–	Cc1ccc2[nH]ncc2c1-c1nc(-c2cc(F)ccc2NS(=O)(=O)C(C)C)nc(C(N)=O)c1N [Compound 530]	–
–	> 10000 nM	Cc1ccc2[nH]ncc2c1-c1nc(-c2cc(F)cnc2N[C@@H]2CCOC[C@H]2O)nc(C(N)=O)c1N [Compound 799, 5-amino-2-(5-fluoro-2-(((3S,4R)-3-hydroxytetrahydro-2H-pyran-4-yl)amino)pyridin-3-yl)-6-(5-methyl-1H-indazol-4-yl)pyrimidine-4-carboxamide]	–
–	121 nM	Cc1ccc2[nH]ncc2c1-c1nc(-c2ccc(F)cc2N[C@H]2C[C@@](C)(O)C2)nc(C(N)=O)c1N [Compound 862]	–
6 nM	–	Cc1ccc(-c2nc(C(N)=O)c(N)c(-c3c(C)ccc4[nH]ncc34)n2)c(Nc2nc(C)cnc2C)n1 [Compound 689]	–
18 nM	–	Cc1ccc2[nH]ncc2c1-c1nc(-c2ccc(F)cc2Nc2ccnc(C)c2C)nc(C(N)=O)c1N [Compound 584]	–
13 nM	–	Cc1ccc(F)nc1Nc1ncccc1-c1nc(C(N)=O)c(N)c(-c2c(C)ccc3[nH]ncc23)n1 [Compound 724]	–
6 nM	–	Cc1cccnc1Nc1nc(Cl)ccc1-c1nc(C(N)=O)c(N)c(-c2c(C)ccc3[nH]ncc23)n1 [Compound 736, 5-amino-2-(6-chloro-2-((3-methylpyridin-2-yl)amino)pyridin-3-yl)-6-(5-methyl-1H-indazol-4-yl)pyrimidine-4-carboxamide]	–
16 nM	–	Cc1ccc2[nH]ncc2c1-c1nc(-c2ccc(F)cc2Nc2ccncn2)nc(C(N)=O)c1N [Compound 513]	–
–	1 nM	Cc1ccc(-c2nc(C(N)=O)c(N)c(-c3c(F)ccc4[nH]ncc34)n2)c(Nc2ncccc2F)n1 [Compound 952]	–
111 nM	–	Cc1ccc2[nH]ncc2c1-c1nc(-c2ccc(F)cc2Nc2ccccc2F)nc(C(N)=O)c1N [Compound 589]	–
494 nM	–	Cc1ccc2[nH]ncc2c1-c1nc(-c2ccccc2CO)nc(C(N)=O)c1N [Compound 779]	–
423 nM	–	Cc1ccc2[nH]ncc2c1-c1nc(-c2ccc(F)cc2Nc2cncnc2C(=N)N)nc(C(N)=O)c1N [Compound 694]	–
383 nM	–	Cc1ccnc(Nc2ncccc2-c2nc(C(N)=O)c(N)c(-c3c(C)ccc4[nH]ncc34)n2)c1C [Compound 738]	–
465 nM	–	Cc1ccc2[nH]ncc2c1-c1nc(-c2cc(F)c(F)cc2NCc2cccnc2)nc(C(N)=O)c1N [Compound 496]	–
14 nM	–	Cc1ccc2[nH]ncc2c1-c1nc(-c2cc(F)cnc2NCC(C)(C)C#N)nc(C(N)=O)c1N [Compound 702]	–
101 nM	–	Cc1ccc2[nH]ncc2c1-c1nc(-c2cc(F)ccc2Nc2ccnn2C)nc(C(N)=O)c1N [Compound 522]	–
25 nM	–	Cc1ccc(-c2nc(C(N)=O)c(N)c(-c3c(C)ccc4[nH]ncc34)n2)c(Nc2ncccn2)n1 [Compound 764]	–
–	9 nM	Cc1ccc2[nH]ncc2c1-c1nc(-c2ccc(Cl)nc2Nc2nccnc2F)nc(C(N)=O)c1N [Compound 825]	–
69 nM	–	COc1cncc(Nc2cc(F)ccc2-c2nc(C(N)=O)c(N)c(-c3c(C)ccc4[nH]ncc34)n2)n1 [Compound 696]	–
45 nM	–	Cc1ccc2[nH]ncc2c1-c1nc(-c2cc(F)ccc2NS(C)(=O)=O)nc(C(N)=O)c1N [Compound 491]	–
